Test results from patent US6737383B1, “Herbicidal oxadiazolidines” (priority 1999, dated 2004).

Legend:
bedstraw = assay: Test B pre/postemergence bedstraw; assay type: in vivo, Galium aparine
How it was run: (§1)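 Response is a visual 0-to-10 score relative to untreated plants, where 0 means no effect and 10 means complete control, taken twelve to sixteen days after application. Treatments went onto soil at planting and onto foliage of 1- to 4-leaf plants, using a surfactant-containing non-phytotoxic solvent.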

blackgrass = assay: Test B pre/postemergence blackgrass; assay type: in vivo, Alopecurus myosuroides
How it was run: as §1

surinam grass = assay: Test B pre/postemergence surinam grass; assay type: in vivo, Brachiaria decumbens
How it was run: as §1

cocklebur = assay: Test B pre/postemergence cocklebur; assay type: in vivo, Xanthium strumarium
How it was run: as §1

corn = assay: Test B pre/postemergence corn; assay type: in vivo, Zea mays
How it was run: as §1

giant foxtail = assay: Test B pre/postemergence giant foxtail; assay type: in vivo, Setaria faberii
How it was run: as §1

morningglory = assay: Test B pre/postemergence morningglory; assay type: in vivo, Ipomoea hederacea
How it was run: as §1

pigweed = assay: Test B pre/postemergence pigweed; assay type: in vivo, Amaranthus retroflexus
How it was run: as §1

rape = assay: Test B pre/postemergence rape; assay type: in vivo, Brassica napus
How it was run: as §1

soybean = assay: Test B pre/postemergence soybean; assay type: in vivo, Glycine max
How it was run: as §1

sugar beet = assay: Test B pre/postemergence sugar beet; assay type: in vivo, Beta vulgaris
How it was run: as §1

velvetleaf = assay: Test B pre/postemergence velvetleaf; assay type: in vivo, Abutilon theophrasti
How it was run: as §1

wheat = assay: Test B pre/postemergence wheat; assay type: in vivo, Triticum aestivum
How it was run: as §1

wild oat = assay: Test B pre/postemergence wild oat; assay type: in vivo, Avena fatua
How it was run: as §1

rice = assay: Test B flood test rice; assay type: in vivo, Oryza sativa
How it was run: (§2)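 Each value is a visual injury score relative to controls, with 10 meaning complete control and 0 no effect. Evaluation took place twelve to sixteen days after the 2-leaf-stage plants were treated and kept in the greenhouse.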

smallflower flatsedge = assay: Test B flood test smallflower flatsedge; assay type: in vivo, Cyperus difformis
How it was run: as §2

[1] = Preemergence, Rate 62 g/ha, scale of 0 to 10 where 0 is no effect and 10 is complete control
[2] = Preemergence, Rate 250 g/ha, scale of 0 to 10 where 0 is no effect and 10 is complete control
[3] = Preemergence, Rate 500 g/ha, scale of 0 to 10 where 0 is no effect and 10 is complete control
[4] = Rate 62 g/ha, Postemergence, scale of 0 to 10 where 0 is no effect and 10 is complete control
[5] = Rate 125 g/ha, Postemergence, scale 0 to 10
[6] = Rate 125 g/ha, Preemergence, scale of 0 to 10 where 0 is no effect and 10 is complete control
[7] = Rate 500 g/ha, Postemergence, scale 0 to 10, 0 no effect, 10 complete control
[8] = Rate 62 g/ha, headed Pre-emergence (flood test species), scale 0 to 10 (0 no effect, 10 complete control)
[9] = Rate 125 g/ha, Pre-emergence, flood test species, scale 0 to 10 where 0 is no effect and 10 is complete control
[10] = Rate 250 g/ha, Pre-emergence, flood-test species, scale 0 to 10, 0 is no effect, 10 is complete control
[11] = Rate 500 g/ha, Pre-emergence, flood test species, scale 0 to 10 (0 no effect, 10 complete control)

For `COCCOCn1c(=O)on(C(=O)N(c2ccc(F)cc2)C(C)C)c1=O` [Compound 220], the “Bedstraw plant response rating” value (bedstraw; [1]) was 0, the “Bedstraw plant response rating” value (bedstraw; [2]) was 10 and the “Plant response rating, Bedstraw” value (bedstraw; [3]) was 10. For the same compound, the “Bedstraw plant response rating” value (bedstraw; [4]) was 6, the “Bedstraw plant response rating” value (bedstraw; [5]) was 8 and the “Bedstraw plant response rating” value (bedstraw; [6]) was 4. For the same compound, the “Plant response rating (0 to 10; 0 is no effect, 10 is complete control), Bedstraw” value (bedstraw; Rate 250 g/ha, Postemergence) was 8, the “Bedstraw plant response rating” value (bedstraw; [7]) was 9 and the “Blackgrass plant response rating” value (blackgrass; [1]) was 8. For the same compound, the “Blackgrass plant response rating” value (blackgrass; [2]) was 10, the “Plant response rating, Blackgrass” value (blackgrass; [3]) was 10 and the “Blackgrass plant response rating” value (blackgrass; [4]) was 5. For the same compound, the “Blackgrass plant response rating” value (blackgrass; [5]) was 7, the “Blackgrass plant response rating” value (blackgrass; [6]) was 9 and the “Plant response rating (0 to 10; 0 is no effect, 10 is complete control), Blackgrass” value (blackgrass; Rate 250 g/ha, Postemergence) was 8. For the same compound, the “Blackgrass plant response rating” value (blackgrass; [7]) was 8, the “B. signalgrass plant response rating” value (surinam grass; [1]) was 7 and the “B. signalgrass plant response rating” value (surinam grass; Preemergence, Rate 250 g/ha, scale 0 to 10, 0 is no effect, 10 is complete control) was 8. The “Plant response rating, B. signalgrass” value (surinam grass; [3]) was 8, the “B. signalgrass plant response rating” value (surinam grass; [4]) was 2 and the “B. signalgrass plant response rating” value (surinam grass; Rate 125 g/ha, Postemergence, scale 0 (no effect) to 10 (complete control)) was 7. The “B. signalgrass plant response rating” value (surinam grass; [6]) was 7, the “Plant response rating (0 to 10; 0 is no effect, 10 is complete control), B. signalgrass” value (surinam grass; Rate 250 g/ha, Postemergence) was 8 and the “B. signalgrass plant response rating” value (surinam grass; [7]) was 8. The “Cocklebur plant response rating” value (cocklebur; [1]) was 0, the “Plant response rating, Cocklebur” value (cocklebur; [3]) was 5 and the “Cocklebur plant response rating” value (cocklebur; [4]) was 0. The “Cocklebur plant response rating” value (cocklebur; [5]) was 0, the “Cocklebur plant response rating” value (cocklebur; [6]) was 0 and the “Plant response rating (0 to 10; 0 is no effect, 10 is complete control), Cocklebur” value (cocklebur; Rate 250 g/ha, Postemergence) was 3. For the same compound, the “Cocklebur plant response rating” value (cocklebur; [7]) was 5, the “Corn plant response rating” value (corn; [1]) was 0 and the “Corn plant response rating” value (corn; [2]) was 5. For the same compound, the “Plant response rating, Corn” value (corn; [3]) was 7, the “Corn plant response rating” value (corn; [4]) was 0 and the “Corn plant response rating” value (corn; [5]) was 2. The “Corn plant response rating” value (corn; [6]) was 3, the “Plant response rating (0 to 10; 0 is no effect, 10 is complete control), Corn” value (corn; Rate 250 g/ha, Postemergence) was 6 and the “Corn plant response rating” value (corn; [7]) was 6. The “Giant foxtail plant response rating” value (giant foxtail; [1]) was 9, the “Giant foxtail plant response rating” value (giant foxtail; [2]) was 10 and the “Plant response rating, Giant foxtail” value (giant foxtail; [3]) was 10. For the same compound, the “Giant foxtail plant response rating” value (giant foxtail; [4]) was 5, the “Giant foxtail plant response rating” value (giant foxtail; [5]) was 6 and the “Giant foxtail plant response rating” value (giant foxtail; [6]) was 9. For the same compound, the “Plant response rating (0 to 10; 0 is no effect, 10 is complete control), Giant foxtail” value (giant foxtail; Rate 250 g/ha, Postemergence) was 8, the “Giant foxtail plant response rating” value (giant foxtail; [7]) was 8 and the “Morningglory plant response rating” value (morningglory; [1]) was 0. The “Morningglory plant response rating” value (morningglory; [2]) was 1, the “Plant response rating, Morningglory” value (morningglory; [3]) was 6 and the “Morningglory plant response rating” value (morningglory; [4]) was 5. The “Morningglory plant response rating” value (morningglory; [5]) was 5, the “Morningglory plant response rating” value (morningglory; [6]) was 0 and the “Plant response rating (0 to 10; 0 is no effect, 10 is complete control), Morningglory” value (morningglory; Rate 250 g/ha, Postemergence) was 8. The “Morningglory plant response rating” value (morningglory; [7]) was 8, the “Redroot pigweed plant response rating” value (pigweed; [1]) was 0 and the “Redroot pigweed plant response rating” value (pigweed; [2]) was 8. The “Plant response rating, Redroot pigweed” value (pigweed; [3]) was 10, the “Redroot pigweed plant response rating” value (pigweed; [4]) was 0 and the “Redroot pigweed plant response rating” value (pigweed; [5]) was 1. The “Redroot pigweed plant response rating” value (pigweed; [6]) was 2, the “Plant response rating (0 to 10; 0 is no effect, 10 is complete control), Redroot pigweed” value (pigweed; Rate 250 g/ha, Postemergence) was 3 and the “Redroot pigweed plant response rating” value (pigweed; [7]) was 4. For the same compound, the “Rape plant response rating” value (rape; [1]) was 1, the “Rape plant response rating” value (rape; [2]) was 8 and the “Plant response rating, Rape” value (rape; [3]) was 8. For the same compound, the “Rape plant response rating” value (rape; [4]) was 0, the “Rape plant response rating” value (rape; [5]) was 0 and the “Rape plant response rating” value (rape; [6]) was 6. For the same compound, the “Plant response rating (0 to 10; 0 is no effect, 10 is complete control), Rape” value (rape; Rate 250 g/ha, Postemergence) was 3, the “Rape plant response rating” value (rape; [7]) was 4 and the “Soybean plant response rating” value (soybean; [1]) was 0. For the same compound, the “Soybean plant response rating” value (soybean; [2]) was 0, the “Plant response rating, Soybean” value (soybean; [3]) was 3 and the “Soybean plant response rating” value (soybean; [4]) was 5. The “Soybean plant response rating” value (soybean; [5]) was 5, the “Soybean plant response rating” value (soybean; [6]) was 0 and the “Plant response rating (0 to 10; 0 is no effect, 10 is complete control), Soybean” value (soybean; Rate 250 g/ha, Postemergence) was 7. The “Soybean plant response rating” value (soybean; [7]) was 7, the “Sugarbeets plant response rating” value (sugar beet; [1]) was 5 and the “Sugarbeets plant response rating” value (sugar beet; [2]) was 8. The “Plant response rating, Sugarbeets” value (sugar beet; [3]) was 8, the “Sugarbeets plant response rating” value (sugar beet; [4]) was 0 and the “Sugarbeets plant response rating” value (sugar beet; [5]) was 0. For the same compound, the “Sugarbeets plant response rating” value (sugar beet; [6]) was 6, the “Plant response rating (0 to 10; 0 is no effect, 10 is complete control), Sugarbeets” value (sugar beet; Rate 250 g/ha, Postemergence) was 2 and the “Sugarbeets plant response rating” value (sugar beet; [7]) was 2. The “Velvetleaf plant response rating” value (velvetleaf; [1]) was 1, the “Velvetleaf plant response rating” value (velvetleaf; [2]) was 4 and the “Plant response rating, Velvetleaf” value (velvetleaf; [3]) was 8. For the same compound, the “Velvetleaf plant response rating” value (velvetleaf; [4]) was 0, the “Velvetleaf plant response rating” value (velvetleaf; [5]) was 0 and the “Velvetleaf plant response rating” value (velvetleaf; [6]) was 3. The “Plant response rating (0 to 10; 0 is no effect, 10 is complete control), Velvetleaf” value (velvetleaf; Rate 250 g/ha, Postemergence) was 2, the “Velvetleaf plant response rating” value (velvetleaf; [7]) was 2 and the “Wheat plant response rating” value (wheat; [1]) was 6. For the same compound, the “Wheat plant response rating” value (wheat; [2]) was 8, the “Plant response rating, Wheat” value (wheat; [3]) was 8 and the “Wheat plant response rating” value (wheat; [4]) was 3. The “Wheat plant response rating” value (wheat; [5]) was 4, the “Wheat plant response rating” value (wheat; [6]) was 7 and the “Plant response rating (0 to 10; 0 is no effect, 10 is complete control), Wheat” value (wheat; Rate 250 g/ha, Postemergence) was 6. The “Wheat plant response rating” value (wheat; [7]) was 6, the “Wild oats plant response rating” value (wild oat; [1]) was 3 and the “Wild oats plant response rating” value (wild oat; [2]) was 7. For the same compound, the “Plant response rating, Wild oats” value (wild oat; [3]) was 8, the “Wild oats plant response rating” value (wild oat; [4]) was 0 and the “Wild oats plant response rating” value (wild oat; [5]) was 0. The “Wild oats plant response rating” value (wild oat; [6]) was 5, the “Plant response rating (0 to 10; 0 is no effect, 10 is complete control), Wild oats” value (wild oat; Rate 250 g/ha, Postemergence) was 2 and the “Wild oats plant response rating” value (wild oat; [7]) was 2. The “Rice plant response rating” value (rice; [8]) was 0, the “Rice plant response rating” value (rice; [9]) was 0 and the “Rice plant response rating” value (rice; [10]) was 0. The “Rice plant response rating” value (rice; [11]) was 0, the “S. Flatsedge plant response rating” value (smallflower flatsedge; [8]) was 0 and the “S. Flatsedge plant response rating” value (smallflower flatsedge; [9]) was 0. For the same compound, the “S. Flatsedge plant response rating” value (smallflower flatsedge; [10]) was 0 and the “S. Flatsedge plant response rating” value (smallflower flatsedge; [11]) was 0.
